Reference: patent US9738634B2, “Heterocyclic amide compound and herbicide” (SYNGENTA PARTICIPATIONS AG, priority 2013, dated 2017)

What was measured:
Assay type in all cases: in vivo
transplanted rice = experiment: Test Example 1: preemergent weed treatment in the submerged state, effect on crop; a: transplanted rice; details: treatment dosage 252 g/ha
Summary of the method: (§1)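 Alluvial soil in Wagner pots flooded to 4 cm; barnyard grass, bulrush and oval-leafed pondweed seeds sown, then 2.5-leaf rice seedlings transplanted. Same day, emulsified compound diluted in water to set g/ha dosages and applied to water surface; greenhouse 25–30 °C, effect scored by criteria after 3 weeks.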

chickweed [1] = experiment: Test Example 4: weedkilling efficacy by foliar treatment; N: chickweed; details: treatment dosage 315 g/ha
Summary of the method: (§2)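 Seeds are spot-sown into sterilized diluvial soil and covered with about 1.5 cm of soil. After 14 days' greenhouse growth at 25 to 30° C, plants are sprayed on stems and leaves with diluted emulsion at the stated g/ha rate, then scored at 3 weeks.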

fig-leafed goosefoot [2] = experiment: Test Example 4: weedkilling efficacy by foliar treatment; M: fig-leafed goosefoot; details: treatment dosage 315 g/ha
Summary of the method: as §2

oval-leafed pondweed [3] = experiment: Test Example 2: weedkilling efficacy, growth period weed treatment in the submerged state; C: oval-leafed pondweed; details: treatment dosage 252 g/ha
Summary of the method: (§3)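 First, alluvial soil in pots is flooded to 4 cm and mixed seed is sown. Next, plants grow in a greenhouse at 25 to 30° C until the 1-2 leaf stage. Then diluted emulsion is applied onto the water surface at the given g/ha rate, and injury is assessed after 3 weeks.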

bulrush [4] = experiment: Test Example 2: weedkilling efficacy, growth period weed treatment in the submerged state; B: bulrush; details: treatment dosage 252 g/ha
Summary of the method: as §3

black-grass [5] = experiment: Test Example 3: weedkilling efficacy through soil treatment; H: black-grass; details: treatment dosage 315 g/ha
Summary of the method: (§4)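 Crop and weed responses were judged three weeks after a uniform surface spray of the water-diluted emulsion at the given g/ha rate. Seeds sat beneath about 1.5 cm of sterilized diluvial soil, and boxes stood in a greenhouse at 25 to 30° C.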

corn [6] = experiment: Test Example 3: soil treatment, effect on crop; c: corn; details: treatment dosage 315 g/ha
Summary of the method: as §4

crabgrass [7] = experiment: Test Example 4: weedkilling efficacy by foliar treatment; D: crabgrass; details: treatment dosage 315 g/ha
Summary of the method: as §2

soybean [8] = experiment: Test Example 3: soil treatment, effect on crop; d: soybean; details: treatment dosage 315 g/ha
Summary of the method: as §4

wheat [9] = experiment: Test Example 3: soil treatment, effect on crop; e: wheat; details: treatment dosage 315 g/ha
Summary of the method: as §4

birds-eye speedwell [10] = experiment: Test Example 4: weedkilling efficacy by foliar treatment; p: birds-eye speedwell; details: treatment dosage 315 g/ha
Summary of the method: as §2

Indian mallow [11] = experiment: Test Example 3: weedkilling efficacy through soil treatment; K: Indian mallow; details: treatment dosage 315 g/ha
Summary of the method: as §4

corn [12] = experiment: Test Example 4: foliar treatment, effect on crop; c: corn; details: treatment dosage 315 g/ha
Summary of the method: as §2

beet [13] = experiment: Test Example 4: foliar treatment, effect on crop; f: beet; details: treatment dosage 315 g/ha
Summary of the method: as §2

oval-leafed pondweed [14] = experiment: Test Example 1: weedkilling efficacy, preemergent weed treatment in the submerged state; C: oval-leafed pondweed; details: treatment dosage 252 g/ha
Summary of the method: as §1

green foxtail [15] = experiment: Test Example 4: weedkilling efficacy by foliar treatment; E: green foxtail; details: treatment dosage 315 g/ha
Summary of the method: as §2

directly sown rice [16] = experiment: Test Example 3: soil treatment, effect on crop; b: directly sown rice; details: treatment dosage 315 g/ha
Summary of the method: as §4

catchweed [17] = experiment: Test Example 4: weedkilling efficacy by foliar treatment; O: catchweed; details: treatment dosage 315 g/ha
Summary of the method: as §2

wild oat [18] = experiment: Test Example 3: weedkilling efficacy through soil treatment; G: wild oat; details: treatment dosage 315 g/ha
Summary of the method: as §4

directly sown rice [19] = experiment: Test Example 4: foliar treatment, effect on crop; b: directly sown rice; details: treatment dosage 315 g/ha
Summary of the method: as §2

barnyard grass [20] = experiment: Test Example 2: weedkilling efficacy, growth period weed treatment in the submerged state; A: barnyard grass; details: treatment dosage 252 g/ha
Summary of the method: as §3

barnyard grass [21] = experiment: Test Example 1: weedkilling efficacy, preemergent weed treatment in the submerged state; A: barnyard grass; details: treatment dosage 252 g/ha
Summary of the method: as §1

Indian mallow [22] = experiment: Test Example 4: weedkilling efficacy by foliar treatment; K: Indian mallow; details: treatment dosage 315 g/ha
Summary of the method: as §2

soybean [23] = experiment: Test Example 4: foliar treatment, effect on crop; d: soybean; details: treatment dosage 315 g/ha
Summary of the method: as §2

beet [24] = experiment: Test Example 3: soil treatment, effect on crop; f: beet; details: treatment dosage 315 g/ha
Summary of the method: as §4

redroot pigweed [25] = experiment: Test Example 4: weedkilling efficacy by foliar treatment; L: redroot pigweed; details: treatment dosage 315 g/ha
Summary of the method: as §2

fig-leafed goosefoot [26] = experiment: Test Example 3: weedkilling efficacy through soil treatment; M: fig-leafed goosefoot; details: treatment dosage 315 g/ha
Summary of the method: as §4

chickweed [27] = experiment: Test Example 3: weedkilling efficacy through soil treatment; N: chickweed; details: treatment dosage 315 g/ha
Summary of the method: as §4

birds-eye speedwell [28] = experiment: Test Example 3: weedkilling efficacy through soil treatment; p: birds-eye speedwell; details: treatment dosage 315 g/ha
Summary of the method: as §4

wild oat [29] = experiment: Test Example 4: weedkilling efficacy by foliar treatment; G: wild oat; details: treatment dosage 315 g/ha
Summary of the method: as §2

Italian ryegrass [30] = experiment: Test Example 4: weedkilling efficacy by foliar treatment; I: Italian ryegrass; details: treatment dosage 315 g/ha
Summary of the method: as §2

bulrush [31] = experiment: Test Example 1: weedkilling efficacy, preemergent weed treatment in the submerged state; B: bulrush; details: treatment dosage 252 g/ha
Summary of the method: as §1

crabgrass [32] = experiment: Test Example 3: weedkilling efficacy through soil treatment; D: crabgrass; details: treatment dosage 315 g/ha
Summary of the method: as §4

redroot pigweed [33] = experiment: Test Example 3: weedkilling efficacy through soil treatment; L: redroot pigweed; details: treatment dosage 315 g/ha
Summary of the method: as §4

catchweed [34] = experiment: Test Example 3: weedkilling efficacy through soil treatment; O: catchweed; details: treatment dosage 315 g/ha
Summary of the method: as §4

green foxtail [35] = experiment: Test Example 3: weedkilling efficacy through soil treatment; E: green foxtail; details: treatment dosage 315 g/ha
Summary of the method: as §4

wheat [36] = experiment: Test Example 4: foliar treatment, effect on crop; e: wheat; details: treatment dosage 315 g/ha
Summary of the method: as §2

Italian ryegrass [37] = experiment: Test Example 3: weedkilling efficacy through soil treatment; I: Italian ryegrass; details: treatment dosage 315 g/ha
Summary of the method: as §4

black-grass [38] = experiment: Test Example 4: weedkilling efficacy by foliar treatment; H: black-grass; details: treatment dosage 315 g/ha
Summary of the method: as §2

CC1=C(c2ccccc2)C(=O)N(C(C)(C)C(=O)Nc2cc(F)ccn2)CO1 [B-2-25]
a (transplanted rice) effect on crop grade (transplanted rice): 2 (weed kill ratio 20% or more, less than 40%) | N (chickweed) weedkilling efficacy grade (chickweed [1]): 4 (weed kill ratio 70% or more, less than 90%) | M (fig-leafed goosefoot) weedkilling efficacy grade (fig-leafed goosefoot [2]): 4 (weed kill ratio 70% or more, less than 90%) | C (oval-leafed pondweed) weedkilling efficacy grade (oval-leafed pondweed [3]): 5 (weed kill ratio 90% or more, (practically complete withering)) | B (bulrush) weedkilling efficacy grade (bulrush [4]): 5 (weed kill ratio 90% or more, (practically complete withering)) | H (black-grass) weedkilling efficacy grade (black-grass [5]): 5 (weed kill ratio 90% or more, (practically complete withering)) | c (corn) effect on crop grade (corn [6]): 3 (weed kill ratio 40% or more, less than 70%) | D (crabgrass) weedkilling efficacy grade (crabgrass [7]): 5 (weed kill ratio 90% or more, (practically complete withering)) | d (soybean) effect on crop grade (soybean [8]): 0 (weed kill ratio 5% or less (practically no effect)) | e (wheat) effect on crop grade (wheat [9]): 1 (weed kill ratio 5% or more, less than 20%) | P (birds-eye speedwell) weedkilling efficacy grade (birds-eye speedwell [10]): 5 (weed kill ratio 90% or more, (practically complete withering)) | K (Indian mallow) weedkilling efficacy grade (Indian mallow [11]): 4 (weed kill ratio 70% or more, less than 90%) | c (corn) effect on crop grade (corn [12]): 3 (weed kill ratio 40% or more, less than 70%) | f (beet) effect on crop grade (beet [13]): 3 (weed kill ratio 40% or more, less than 70%) | C (oval-leafed pondweed) weedkilling efficacy grade (oval-leafed pondweed [14]): 5 (weed kill ratio 90% or more, (practically complete withering)) | E (green foxtail) weedkilling efficacy grade (green foxtail [15]): 5 (weed kill ratio 90% or more, (practically complete withering)) | b (directly sown rice) effect on crop grade (directly sown rice [16]): 5 (weed kill ratio 90% or more, (practically complete withering)) | O (catchweed) weedkilling efficacy grade (catchweed [17]): 5 (weed kill ratio 90% or more, (practically complete withering)) | G (wild oat) weedkilling efficacy grade (wild oat [18]): 5 (weed kill ratio 90% or more, (practically complete withering)) | b (directly sown rice) effect on crop grade (directly sown rice [19]): 5 (weed kill ratio 90% or more, (practically complete withering)) | A (barnyard grass) weedkilling efficacy grade (barnyard grass [20]): 5 (weed kill ratio 90% or more, (practically complete withering)) | A (barnyard grass) weedkilling efficacy grade (barnyard grass [21]): 5 (weed kill ratio 90% or more, (practically complete withering)) | K (Indian mallow) weedkilling efficacy grade (Indian mallow [22]): 4 (weed kill ratio 70% or more, less than 90%) | d (soybean) effect on crop grade (soybean [23]): 3 (weed kill ratio 40% or more, less than 70%) | f (beet) effect on crop grade (beet [24]): 2 (weed kill ratio 20% or more, less than 40%) | L (redroot pigweed) weedkilling efficacy grade (redroot pigweed [25]): 2 (weed kill ratio 20% or more, less than 40%) | M (fig-leafed goosefoot) weedkilling efficacy grade (fig-leafed goosefoot [26]): 4 (weed kill ratio 70% or more, less than 90%) | N (chickweed) weedkilling efficacy grade (chickweed [27]): 4 (weed kill ratio 70% or more, less than 90%) | P (birds-eye speedwell) weedkilling efficacy grade (birds-eye speedwell [28]): 5 (weed kill ratio 90% or more, (practically complete withering)) | G (wild oat) weedkilling efficacy grade (wild oat [29]): 5 (weed kill ratio 90% or more, (practically complete withering)) | I (Italian ryegrass) weedkilling efficacy grade (Italian ryegrass [30]): 5 (weed kill ratio 90% or more, (practically complete withering)) | B (bulrush) weedkilling efficacy grade (bulrush [31]): 5 (weed kill ratio 90% or more, (practically complete withering)) | D (crabgrass) weedkilling efficacy grade (crabgrass [32]): 5 (weed kill ratio 90% or more, (practically complete withering)) | L (redroot pigweed) weedkilling efficacy grade (redroot pigweed [33]): 3 (weed kill ratio 40% or more, less than 70%) | O (catchweed) weedkilling efficacy grade (catchweed [34]): 5 (weed kill ratio 90% or more, (practically complete withering)) | E (green foxtail) weedkilling efficacy grade (green foxtail [35]): 5 (weed kill ratio 90% or more, (practically complete withering)) | e (wheat) effect on crop grade (wheat [36]): 0 (weed kill ratio 5% or less (practically no effect)) | I (Italian ryegrass) weedkilling efficacy grade (Italian ryegrass [37]): 5 (weed kill ratio 90% or more, (practically complete withering)) | H (black-grass) weedkilling efficacy grade (black-grass [38]): 5 (weed kill ratio 90% or more, (practically complete withering))
